In PMC10631261 (Chemical Science, 2023):
Where two headings read alike, the source gives them in different places.

Key:
EGLN3 [1] = assay: qRT-PCR of EGLN3 expression in Hep3B cells; assay type: cell-based, human; details: for increase of EGLN3 expression relative to DMSO: 50 μM, 12 h, qRT-PCR
Experimental: (§1) 4. Methods for cell studies […]
(§2) in Minimum Essential Medium (MEM, GIBCO) with 10% fetal bovine serum (FBS, BI), 100 U/mL penicillin and 100 μg/mL streptomycin (1 × P/S, NCM Biotech). […]
(§3) and 100 μg/mL streptomycin (1 × P/S, NCM Biotech).
(§4) Quantitative PCR Analysis of Gene Expression […]
(§5) treated with vehicle (DMSO) or an inhibitor (at the concentrations indicated) for 12 h. Total RNA was isolated from cells and tissues using Trizol regents (Vazyme, China). 1 μg RNA was used for reverse transcription using HiScript III RT SuperMix for qPCR (Vazyme, China). cDNAs were amplified in a ChamQ Universal SYBR qPCR Master Mix (Vazyme, China). Quantitative PCR (qPCR) was performed on […]
(§6) a ABI QuantStudio 3 system.
(§7) The relative amount of mRNA was calculated after
(§8) 3T3-L1 derived adipocytes. […]

CA9 = assay: qRT-PCR of CA9 expression in Hep3B cells; assay type: cell-based, human; details: for upregulation of CA9: qPCR, relative to DMSO
Experimental: as §1, §2, §3, §4, §5, §6, §7, §8

FIH [2] = molecular target: T1, FIH (Homo sapiens, UniProt Q9NWT6); details: ESI Table S1; ref 19 (ESI); cited from earlier work
T1 construct: made in house

SLC2A1 = assay: qRT-PCR of SLC2A1 expression in Hep3B cells; assay type: cell-based, human; details: for increase of SLC2A1 levels: qPCR, relative to DMSO
Experimental: as §1, §2, §3, §4, §5, §6, §7, §8

EPO = assay: qRT-PCR of EPO expression in Hep3B cells; assay type: cell-based, human; details: for upregulation of EPO: qPCR, relative to DMSO; for EPO levels in combination with FG-4592 compared with FG-4592 alone: with FG-4592, to a lesser extent than CA9
Experimental: as §1, §2, §3, §4, §5, §6, §7, §8

FIH [3] = molecular target: T1, FIH; assay: SPE-MS FIH inhibition assay; assay type: biochemical; details: for FIH inhibition potency relative to 2,4-PDCA (more potent): IC50 comparison with 2,4-PDCA
Experimental: (§9) Protein production and purification
(§10) PAGE analysis) according to established procedures.
(§11) FIH, PHD2, AspH, JMJD5 and KDM4A inhibition assays
(§12) The in vitro FIH,1, 2 PHD2,1 AspH,38 JMJD536 and KDM4A39 inhibition assays were performed as […]
(§13) KDM4A). Synthetic peptide substrates were used: HIF-1α C-terminal transactivation domain fragment […]
(§14) H3Lys9 bearing three methyl groups at the N ϵ position, H3Lys4 substituted by an Ala and H3Lys14 substituted by an Ile residue) for KDM4A.39 Peptides were prepared as C-terminal amides by GL Biochem (Shanghai) Ltd. Peptide hydroxylation in the case of FIH, PHD2, AspH and JMJD5 (+16 Da mass shift) or peptide demethylation in the case of KDM4A ( -14 Da mass shift) was monitored by SPE-MS. […]

[4] = tested on: 3T3-L1 derived adipocytes; assay: Cellular triglyceride (TG) colorimetric assay; assay type: cell-based
Experimental: as §1, §2
(§15) and 100 μg/mL streptomycin (1 × P/S, NCM Biotech). […]
(§16) 3T3-L1 derived adipocytes.
(§17) 10% newborn calf serum (NCS, GIBCO), 100 U/mL penicillin and 100 μg/mL streptomycin (1 × P/S, NCM […]
(§18) The 3T3-L1 cells were strictly subcultured before they
Subcultures of 3T3 -L1 cells were routinely cultured in DMEM medium containing 10% NCS for two days, and then the cells were cultured in DMEM containing 10% FBS, 0.5 mM 3 -isobutyl-1-methylxanthine, 1 μM dexamethasone, 10 μg/mL insulin and 2 μM rosiglitazone for another two days. Subsequently, the cells were cultured in DMEM containing 10% FBS and 10 μg/mL insulin for two days. After these procedures, the cells were maintained in […]
To investigate the effect of inhibitors on adipocytes, 3T3-L1-derived adipocytes were treated with vehicle (DMSO) or with an inhibitor (at the concentrations indicated) for 48 h. […]
Cellular TG level assay for 3T3 -L1 derived adipocytes.
The 3T3-L1-derived adipocytes were washed with PBS, then the cells were lysed. And then, the cellular TG level was determined by using a cellular triglyceride assay kit (Applygen, China).
Oil Red O staining for 3T3-L1 derived adipocytes.

KDM4A = KDM4A (Homo sapiens, UniProt O75164); assay: biochemical; assay type: biochemical
Description: (§19) To investigate the potential of BNS for selective FIH inhibition, its selectivity was investigated with respect to other 2OG-dependent protein oxidising enzymes, that is PHD2, Jumonji-C domain-containing protein 5 (JMJD5), aspartate/asparagine-β-hydroxylase (AspH) and KDM4A, using reported SPE-MS inhibition assays.[58,61,69,70] In addition to PHD2 and KDM4A, we included AspH and JMJD5 in our selectivity studies, because AspH, like FIH, catalyses protein aspartate- and asparagine-residue hydroxylation (although in epidermal growth factor-like domains),[71,72] and because JMJD5 is structurally closely related to FIH.[73,74]
(§20) 3. Biochemical procedures
as §9, §10, §11, §12, §13, §14

PHD2 = PHD2 (Homo sapiens, UniProt Q9GZT9); assay: biochemical
Experimental: as §20, §9, §10, §11, §12, §13, §14

[5] = tested on: 3T3-L1 derived adipocytes; assay type: cell-based
Experimental: as §1, §2, §15, §16, §17, §18
Subcultures of 3T3 -L1 cells were routinely cultured in DMEM medium containing 10% NCS for two days, and then the cells were cultured in DMEM containing 10% FBS, 0.5 mM 3 -isobutyl-1-methylxanthine, 1 μM dexamethasone, 10 μg/mL insulin and 2 μM rosiglitazone for another two days. Subsequently, the cells were cultured in DMEM containing 10% FBS and 10 μg/mL insulin for two days. After these procedures, the cells were maintained in DMEM containing 10% FBS. T he last induction procedure was repeated 2 -3 times until lipid droplets […]
Viability Assay for 3T3-L1 derived adipocytes.
To investigate the effect of inhibitors on adipocytes, 3T3-L1-derived adipocytes were treated with vehicle (DMSO) or with an inhibitor (at the concentrations indicated) for 48 h. Cell viability was […]
Microplate Reader (Tecan) at OD 450 nm. […]

AspH [6] = molecular target: T2, AspH (Homo sapiens, UniProt Q12797); assay: biochemical
Description: as §19, §20, §9, §10, §11, §12, §13, §14

JMJD5 [7] = molecular target: T3, JMJD5 (Homo sapiens, UniProt Q8N371); assay: biochemical; details: read-out: JMJD5 IC50
Description: as §19, §20, §9, §10, §11, §12, §13, §14

EGLN3 [8] = assay: qRT-PCR of EGLN3 expression in 786-O cells; assay type: cell-based; details: VHL-deficient 786-O cells
Experimental: as §1, §2, §3, §4, §5, §6, §7, §8

AspH [9] = molecular target: T2, AspH; details: cited from earlier work
JMJD5 [10] = molecular target: T3, JMJD5; parameters: method as in PMID 37292060; details: cited from earlier work

T3 sequence (Q8N371 whole entry): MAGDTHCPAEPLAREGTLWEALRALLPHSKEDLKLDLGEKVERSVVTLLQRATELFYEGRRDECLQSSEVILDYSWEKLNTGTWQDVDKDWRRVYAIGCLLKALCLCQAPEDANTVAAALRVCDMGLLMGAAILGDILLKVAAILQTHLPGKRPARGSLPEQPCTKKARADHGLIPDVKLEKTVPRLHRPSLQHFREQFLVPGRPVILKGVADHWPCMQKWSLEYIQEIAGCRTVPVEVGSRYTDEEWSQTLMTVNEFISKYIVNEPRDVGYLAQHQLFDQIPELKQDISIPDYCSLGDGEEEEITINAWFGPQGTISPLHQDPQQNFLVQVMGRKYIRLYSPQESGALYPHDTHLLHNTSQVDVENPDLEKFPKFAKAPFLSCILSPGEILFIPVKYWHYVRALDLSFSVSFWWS
T2 sequence (Q12797 315-758): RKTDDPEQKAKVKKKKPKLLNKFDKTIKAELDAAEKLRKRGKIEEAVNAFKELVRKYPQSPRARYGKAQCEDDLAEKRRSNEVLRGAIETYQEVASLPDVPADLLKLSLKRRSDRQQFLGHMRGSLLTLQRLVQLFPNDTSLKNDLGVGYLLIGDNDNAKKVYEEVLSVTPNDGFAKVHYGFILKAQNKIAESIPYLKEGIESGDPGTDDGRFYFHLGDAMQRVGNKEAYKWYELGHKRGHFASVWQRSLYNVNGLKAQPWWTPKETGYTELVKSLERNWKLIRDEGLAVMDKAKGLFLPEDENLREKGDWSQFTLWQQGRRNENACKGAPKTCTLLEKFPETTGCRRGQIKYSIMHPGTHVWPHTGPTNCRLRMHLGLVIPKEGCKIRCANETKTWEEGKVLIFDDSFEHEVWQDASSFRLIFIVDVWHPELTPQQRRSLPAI
Chain of PHD2 (Q9GZT9 181-426): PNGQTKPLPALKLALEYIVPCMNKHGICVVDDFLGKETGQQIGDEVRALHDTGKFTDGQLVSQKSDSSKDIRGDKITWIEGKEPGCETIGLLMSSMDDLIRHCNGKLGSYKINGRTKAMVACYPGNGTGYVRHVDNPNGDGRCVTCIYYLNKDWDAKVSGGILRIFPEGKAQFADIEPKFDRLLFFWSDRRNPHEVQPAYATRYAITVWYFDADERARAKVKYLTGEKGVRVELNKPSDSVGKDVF
T1 sequence (Q9NWT6 whole entry): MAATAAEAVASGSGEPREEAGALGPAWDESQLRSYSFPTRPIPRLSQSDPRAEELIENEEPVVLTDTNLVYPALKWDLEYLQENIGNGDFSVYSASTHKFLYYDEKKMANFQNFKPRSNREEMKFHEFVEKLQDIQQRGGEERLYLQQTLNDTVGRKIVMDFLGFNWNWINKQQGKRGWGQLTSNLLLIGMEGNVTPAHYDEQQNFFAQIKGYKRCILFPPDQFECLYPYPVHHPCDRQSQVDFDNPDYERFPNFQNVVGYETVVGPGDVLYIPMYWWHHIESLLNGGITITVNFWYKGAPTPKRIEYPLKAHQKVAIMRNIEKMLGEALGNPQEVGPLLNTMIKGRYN
Chain of KDM4A (O75164 1-359): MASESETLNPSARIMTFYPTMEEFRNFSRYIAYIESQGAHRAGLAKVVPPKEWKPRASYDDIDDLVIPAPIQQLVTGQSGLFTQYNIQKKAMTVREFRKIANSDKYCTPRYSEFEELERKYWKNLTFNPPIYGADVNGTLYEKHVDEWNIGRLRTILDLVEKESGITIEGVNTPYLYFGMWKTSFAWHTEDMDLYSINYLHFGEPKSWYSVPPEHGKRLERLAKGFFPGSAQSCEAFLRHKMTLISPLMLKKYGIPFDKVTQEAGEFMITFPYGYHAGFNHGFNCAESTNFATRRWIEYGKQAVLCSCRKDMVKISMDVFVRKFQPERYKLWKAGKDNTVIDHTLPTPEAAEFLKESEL

SMILES | upregulation of CA9 (CA9) | increase of SLC2A1 levels (SLC2A1) [fold] | upregulation of EPO (EPO) | increase of EGLN3 expression relative to DMSO (EGLN3 [1]) [fold] | EGLN3 upregulation on co-administration with FG-4592 relative to compound alone (EGLN3 [1]) | IC50 (FIH [3]) [µM] | FIH inhibition potency relative to 2,4-PDCA (more potent) (FIH [3]) [fold] | selectivity for FIH inhibition over AspH inhibition (FIH [3]; as judged by IC50 values) [fold] | selectivity for FIH inhibition over KDM4A inhibition (FIH [3]; as judged by IC50 values) [fold] | IC50 (KDM4A) [µM] | IC50 (PHD2) [µM] | IC50 (AspH [6]) [µM] | IC50 (JMJD5 [7]) [µM] | effect on EGLN3 gene expression (EGLN3 [8]) | other results
Cc1nc(C(=O)NCC(=O)O)c(O)c2ccc(Oc3ccccc3)cc12 [FG-4592] | ~8 fold | ~4 | ~7 fold | – | – | – | – | – | – | – | – | – | – | – | effect on Hep3B EGLN3 levels (EGLN3 [1]; compound alone): no effect; IC50 (FIH [2]): > 100 µM
O=C(O)Cc1csc(=NC(=O)C2CCN(S(=O)(=O)Cc3ccccc3)C2)n1O (centres unmarked) [compound 42] | no response | ~1.5 | no response | ~2.5 | greater increase | 0.28 ± 0.02 | ~10 | > 100 | > 300 | > 100 | 6.9 ± 0.5 | 43.1 ± 18.7 | 7.2 ± 2.8 | upregulation of EGLN3 | selectivity for FIH inhibition over JMJD5 inhibition (FIH [3]; as judged by IC50 values): ~25 fold; selectivity for FIH inhibition over PHD2 inhibition (FIH [3]; as judged by IC50 values): ~25 fold; reduction in cellular TG levels ([4]; 50 μM): ~30%; CA9 levels in combination with FG-4592 compared with FG-4592 alone (CA9): increase; cytotoxicity (cell viability) [5]: Neither 42 and 42b exhibited apparent cytotoxicity; SLC2A1 gene expression in combination with FG-4592 (SLC2A1): no synergistic effect; EPO levels in combination with FG-4592 compared with FG-4592 alone (EPO): increase
O=C(O)Cc1csc(=NC(=O)C2CCN(S(=O)(=O)c3ccc(Oc4ccccc4)cc3)C2)n1O (centres unmarked) [compound 39] | – | – | – | ~2.5 | no additional effect | 0.29 ± 0.03 | ~10 | > 100 | > 300 | > 100 | 3.1 ± 0.2 | 29.8 ± 4.3 | 8.6 ± 0.2 | upregulation of EGLN3 | melting point: 179 to 183 °C
O=C(O)Cc1csc(=NC(=O)C2CCN(S(=O)(=O)c3ccc(-c4ccccc4)cc3)C2)n1O (centres unmarked) [compound 38] | – | – | – | ~2.5 | greater increase | 0.26 ± 0.01 | ~10 | > 100 | > 300 | > 100 | 3.1 ± 0.1 | 30.2 ± 10.9 | 31.9 ± 2 | upregulation of EGLN3 | melting point: 180 to 183 °C
COC(=O)C(=O)N[C@H](Cc1ccccc1)C(=O)OC [DM-NOFD, dimethyl N-oxalyl-D-phenylalanine] | no response | ~1.3 | no response | ~1.8 | no additional effect | – | – | – | – | – | – | – | – | upregulation of EGLN3 | effect on TG levels ([4]; 100 μM): no effect; CA9 levels in combination with FG-4592 compared with FG-4592 alone (CA9): increase; SLC2A1 gene expression in combination with FG-4592 (SLC2A1): no synergistic effect; EPO levels in combination with FG-4592 compared with FG-4592 alone (EPO): increase
O=C(O)CNC(=O)C(=O)O [NOG, N-oxalylglycine, reference compound] | – | – | – | – | – | 0.36 ± 0.03 | – | – | – | – | – | – | – | – | IC50 (KDM4A; 0.15 μM KDM4A, 10.0 μM 2OG, 10.0 μM H3 1–15 K9me3, SPE-MS): 22.1 ± 1.1 µM; IC50 (AspH [9]; SPE-MS, ref [58]): 1.1 ± 0.3 µM
O=C(O)C(=O)N[C@H](Cc1ccccc1)C(=O)O [NOFD, N-oxalyl-D-phenylalanine, reference compound] | – | – | – | – | – | – | – | – | – | 14.1 | > 100 | – | – | – | IC50 (JMJD5 [10]): > 100 µM; IC50 (AspH [9]): 15.5 µM
CC[C@H]1[C@@H](O)[C@@H]2[C@H](CC[C@]3(C)[C@@H]([C@H](C)CCC(=O)O)CC[C@@H]23)[C@@]2(C)CC[C@@H](O)C[C@@H]12 [obeticholic acid] | – | – | – | – | – | – | – | – | – | – | – | – | – | – | reduction in cellular TG levels ([4]; 20 μM): 25%
